This assay has as its target T1, hTAS1R2 (TAS1R2/TAS1R3 sweet taste receptor) (Homo sapiens, UniProt Q8TE23).
T1 construct: with hTAS1R3 (TAS1R3)
T1 sequence (Q8TE23 20-839): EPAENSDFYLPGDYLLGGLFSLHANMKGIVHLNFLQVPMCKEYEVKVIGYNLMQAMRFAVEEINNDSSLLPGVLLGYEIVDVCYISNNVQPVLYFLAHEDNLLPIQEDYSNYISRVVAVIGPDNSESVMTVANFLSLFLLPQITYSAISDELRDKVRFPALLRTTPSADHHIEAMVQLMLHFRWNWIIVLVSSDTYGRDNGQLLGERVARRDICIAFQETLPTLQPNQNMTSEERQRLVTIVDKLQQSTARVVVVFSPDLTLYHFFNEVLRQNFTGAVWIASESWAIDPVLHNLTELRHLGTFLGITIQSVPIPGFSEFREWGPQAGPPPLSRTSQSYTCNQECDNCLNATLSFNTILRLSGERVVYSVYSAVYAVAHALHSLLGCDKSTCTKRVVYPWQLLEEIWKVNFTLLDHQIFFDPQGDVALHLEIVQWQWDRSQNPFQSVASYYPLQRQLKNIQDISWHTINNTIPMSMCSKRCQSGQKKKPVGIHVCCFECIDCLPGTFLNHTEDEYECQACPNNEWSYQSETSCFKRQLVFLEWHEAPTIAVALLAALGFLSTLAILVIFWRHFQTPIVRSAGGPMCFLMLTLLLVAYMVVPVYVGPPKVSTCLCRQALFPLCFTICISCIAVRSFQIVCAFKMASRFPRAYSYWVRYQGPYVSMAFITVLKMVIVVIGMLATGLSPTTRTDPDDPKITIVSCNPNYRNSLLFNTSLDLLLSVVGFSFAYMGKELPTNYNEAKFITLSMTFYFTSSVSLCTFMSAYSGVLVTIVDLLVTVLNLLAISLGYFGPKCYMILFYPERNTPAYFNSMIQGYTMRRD
T1 sequence (Q7RTX0 21-852 partner): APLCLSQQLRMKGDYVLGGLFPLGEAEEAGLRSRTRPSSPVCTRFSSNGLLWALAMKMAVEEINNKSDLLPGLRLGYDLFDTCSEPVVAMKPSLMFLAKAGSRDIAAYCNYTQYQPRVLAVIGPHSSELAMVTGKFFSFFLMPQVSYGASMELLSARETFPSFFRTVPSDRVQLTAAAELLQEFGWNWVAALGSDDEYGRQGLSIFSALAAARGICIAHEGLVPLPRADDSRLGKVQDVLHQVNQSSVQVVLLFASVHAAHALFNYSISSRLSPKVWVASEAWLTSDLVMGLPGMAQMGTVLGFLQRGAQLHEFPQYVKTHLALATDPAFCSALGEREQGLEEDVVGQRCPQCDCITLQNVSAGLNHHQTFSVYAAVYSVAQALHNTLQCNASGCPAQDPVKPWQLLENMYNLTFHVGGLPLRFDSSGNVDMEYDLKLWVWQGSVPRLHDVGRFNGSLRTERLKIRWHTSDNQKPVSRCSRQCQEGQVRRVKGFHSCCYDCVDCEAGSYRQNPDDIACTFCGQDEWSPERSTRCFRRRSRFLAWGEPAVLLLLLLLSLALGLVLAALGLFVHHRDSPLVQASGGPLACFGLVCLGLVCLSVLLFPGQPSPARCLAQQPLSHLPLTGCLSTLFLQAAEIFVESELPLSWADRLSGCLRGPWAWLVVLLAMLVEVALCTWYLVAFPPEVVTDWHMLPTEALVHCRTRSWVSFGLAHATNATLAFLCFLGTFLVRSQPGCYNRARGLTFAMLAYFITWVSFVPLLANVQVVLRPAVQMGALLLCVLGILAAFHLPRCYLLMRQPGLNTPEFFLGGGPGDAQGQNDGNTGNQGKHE
Nature of the assay: calcium mobilization (GCaMP5G, FLIPR) in HEK293T-Gα[…]gust44 cells transfected with hTAS1R2 and hTAS1R3, mock-subtracted. The format is cell-based.

In the case of `OC[C@H]1O[C@H](O[C@]2(CCl)O[C@H](CCl)[C@@H](O)[C@@H]2O)[C@H](O)[C@@H](O)[C@H]1Cl` [sucralose], the EC50 (usually the midpoint of the concentration-response curve) is 52 ± 7 µM.

(Values after paper PMC8625740, “Triterpenoid Saponins from the Cultivar “Green Elf” of Pittosporum tenuifolium” (Molecules, 2021).)
